From PubChem BioAssay (NCI)
Values joined by “and” are separate entries in the source; they are usually repeats but may differ in a detail not shown here. Equal entries are not always repeated.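 Five concentrations, 48 hours, 96-well plates. Here, GI50 denotes the concentration required for 50% inhibition of growth. The concentration for full growth arrest is given as TGI.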

Key:
Assay in all cases: growth of human tumour cells (NCI), 48 h
A549 NSCLC = system: A549 NSCLC
ACHN renal = system: ACHN renal
DMS 273 small cell lung = system: DMS 273 small cell lung
HCT-15 colon = system: HCT-15 colon
HL-60(TB) leukemia = system: HL-60(TB) leukemia
KM20L2 colon = system: KM20L2 colon
SF-539 CNS = system: SF-539 CNS
SW-620 colon = system: SW-620 colon
HS 578T breast = system: HS 578T breast
MDA-MB-231 breast = system: MDA-MB-231 breast

For `CC1=C(c2cc(C(=O)Nc3ccc(Cl)c(Cl)c3)nc(N)n2)Sc2ccccc2N1`, the TGI (A549 NSCLC) was over 100 µM, the TGI (ACHN renal) was over 100 µM and the TGI (DMS 273 small cell lung) was over 100 µM. The TGI (HCT-15 colon) was over 100 µM, the TGI (HL-60(TB) leukemia) was over 100 µM and the TGI (KM20L2 colon) was over 100 µM. The TGI (SF-539 CNS) was over 100 µM and the TGI (SW-620 colon) was over 100 µM.
`CC(C)(C)[Si](C)(C)O/N=C\c1ccc(O[Si](C)(C)C(C)(C)C)cc1` was tested, and the TGI (A549 NSCLC) was over 100 µM, the TGI (ACHN renal) was over 100 µM and the TGI (DMS 273 small cell lung) was over 100 µM. It also gave a TGI (HCT-15 colon) of over 100 µM, a TGI (HL-60(TB) leukemia) of over 100 µM and a TGI (KM20L2 colon) of over 100 µM. The TGI (SF-539 CNS) was over 100 µM and the TGI (SW-620 colon) was over 100 µM.
`C=C1Oc2nc3ccccc3c(=O)n2C1(C)C` was tested, and the TGI (A549 NSCLC) was over 100 µM, the TGI (ACHN renal) was over 100 µM and the TGI (DMS 273 small cell lung) was over 100 µM. For the same compound, the TGI (HCT-15 colon) was over 100 µM, the TGI (HL-60(TB) leukemia) was over 100 µM and the TGI (KM20L2 colon) was over 100 µM. For the same compound, the TGI (SF-539 CNS) was over 100 µM and the TGI (SW-620 colon) was over 100 µM.
With `O=C(O)C1c2ccccc2C(C(=O)O)c2ccccc21` (stereo not given) the TGI (A549 NSCLC) was over 100 µM, the TGI (ACHN renal) was over 100 µM and the TGI (DMS 273 small cell lung) was over 100 µM. For the same compound, the TGI (HCT-15 colon) was over 100 µM, the TGI (HL-60(TB) leukemia) was over 100 µM and the TGI (KM20L2 colon) was over 100 µM. It also gave a TGI (SF-539 CNS) of over 100 µM and a TGI (SW-620 colon) of over 100 µM.
For `O=C1/C(=C/c2ccccc2)CCC/C1=C\c1ccccc1`, the GI50 (A549 NSCLC) was 7.66 µM and 17.5 µM, the TGI (A549 NSCLC) was 17.8 µM and 45.7 µM and 42.5 µM and the GI50 (ACHN renal) was 6.72 µM and 9.22 µM. The TGI (ACHN renal) was 12.1 µM and 29.2 µM and 26.2 µM, the TGI (DMS 273 small cell lung) was 21.5 µM and the GI50 (HCT-15 colon) was 5.91 µM and 6.43 µM. The TGI (HCT-15 colon) was 11.9 µM and 31.7 µM and 43.8 µM, the GI50 (HL-60(TB) leukemia) was 10.4 µM and 26.1 µM and the TGI (HL-60(TB) leukemia) was 36.5 µM and > 53 µM and 90 µM. The GI50 (HS 578T breast) was 43.2 µM, the TGI (HS 578T breast) was 28.1 µM and > 100 µM and the TGI (KM20L2 colon) was 22.2 µM. The GI50 (MDA-MB-231 breast) was 18.5 µM, the TGI (MDA-MB-231 breast) was 11.6 µM and 68.1 µM and the GI50 (SF-539 CNS) was 6.9 µM and 22.3 µM. The TGI (SF-539 CNS) was 12.2 µM and 32.7 µM and 53.4 µM, the GI50 (SW-620 colon) was 6.37 µM and 3.19 µM and the TGI (SW-620 colon) was 11.8 µM and 6.4 µM and 11.2 µM.
For `COc1cc2cc[n+]3c4cc(OC)c(OC)cc4c(C)cc3c2cc1OC`, the TGI (A549 NSCLC) was over 100 µM, the TGI (ACHN renal) was over 100 µM and the TGI (DMS 273 small cell lung) was over 100 µM. For the same compound, the TGI (HCT-15 colon) was over 100 µM, the TGI (HL-60(TB) leukemia) was over 100 µM and the TGI (KM20L2 colon) was over 100 µM. For the same compound, the TGI (SF-539 CNS) was over 100 µM and the TGI (SW-620 colon) was over 100 µM.
`Cc1cc(NS(=O)(=O)c2ccc(NC(=O)c3cccc4c(Nc5ccc(S(=O)(=O)Nc6cc(C)on6)cc5)c5ccccc5nc34)cc2)no1` was tested, and the TGI (A549 NSCLC) was over 100 µM, the TGI (ACHN renal) was over 100 µM and the TGI (DMS 273 small cell lung) was over 100 µM. It also gave a TGI (HCT-15 colon) of over 100 µM, a TGI (HL-60(TB) leukemia) of 67 µM and a TGI (KM20L2 colon) of over 100 µM. The TGI (SF-539 CNS) was 62 µM and the TGI (SW-620 colon) was over 100 µM.
In the case of `O=C(O)C1CCCCN1C(=O)c1ccccc1` (stereo not given), the TGI (A549 NSCLC) is reported as over 100 µM, the TGI (ACHN renal) is reported as over 100 µM and the TGI (DMS 273 small cell lung) is reported as over 100 µM. For the same compound, the TGI (HCT-15 colon) was over 100 µM, the TGI (HL-60(TB) leukemia) was over 100 µM and the TGI (KM20L2 colon) was over 100 µM. It also gave a TGI (SF-539 CNS) of over 100 µM and a TGI (SW-620 colon) of over 100 µM.
Work on `CCC[CH2][Sn]([CH2]CCC)([O]C(=O)c1nccnc1N)[O]C(=O)c1nccnc1N` yielded a GI50 (A549 NSCLC) of 3.52 µM, a TGI (A549 NSCLC) of 12.7 µM and a GI50 (ACHN renal) of 1.02 µM. The TGI (ACHN renal) was 2.19 µM, the GI50 (DMS 273 small cell lung) was 0.869 µM and the TGI (DMS 273 small cell lung) was 2.12 µM. For the same compound, the GI50 (HCT-15 colon) was 1.15 µM, the TGI (HCT-15 colon) was 2.37 µM and the GI50 (HL-60(TB) leukemia) was 0.262 µM. For the same compound, the TGI (HL-60(TB) leukemia) was 1.42 µM, the GI50 (KM20L2 colon) was 1.59 µM and the TGI (KM20L2 colon) was 2.95 µM. For the same compound, the GI50 (SF-539 CNS) was 1.09 µM, the TGI (SF-539 CNS) was 2.3 µM and the GI50 (SW-620 colon) was 0.319 µM. It also gave a TGI (SW-620 colon) of 1.26 µM.
`O=C(Nc1ccccc1Br)c1cccc([N+](=O)[O-])c1O` was tested, and the TGI (A549 NSCLC) was over 100 µM, the TGI (ACHN renal) was over 36.8 µM and the TGI (DMS 273 small cell lung) was over 48.8 µM. It also gave a TGI (HCT-15 colon) of 25.4 µM, a TGI (HL-60(TB) leukemia) of 12.9 µM and a TGI (KM20L2 colon) of 36.7 µM. It also gave a TGI (SF-539 CNS) of 35 µM and a TGI (SW-620 colon) of over 100 µM.
Work on `CC[O-].Cc1ccc2cccc([O-])c2n1.Cc1ccc2cccc([O-])c2n1.Cc1ccc2cccc([O-])c2n1.[Ti+4]` yielded a GI50 (A549 NSCLC) of 11.1 µM, a TGI (A549 NSCLC) of 20.6 µM and a GI50 (ACHN renal) of 50.3 µM. It also gave a TGI (ACHN renal) of over 100 µM, a GI50 (DMS 273 small cell lung) of over 33.3 µM and a TGI (DMS 273 small cell lung) of over 67.7 µM. For the same compound, the GI50 (HCT-15 colon) was 42.4 µM, the TGI (HCT-15 colon) was over 100 µM and the GI50 (HL-60(TB) leukemia) was 3.3 µM. The TGI (HL-60(TB) leukemia) was 16 µM, the GI50 (KM20L2 colon) was over 54.2 µM and the TGI (KM20L2 colon) was over 100 µM. It also gave a GI50 (SF-539 CNS) of 40.4 µM, a TGI (SF-539 CNS) of over 100 µM and a GI50 (SW-620 colon) of 29.6 µM. The TGI (SW-620 colon) was over 61.1 µM.
For `N#CC(C#N)=CSc1ccccc1`, the TGI (A549 NSCLC) was over 100 µM, the TGI (ACHN renal) was over 100 µM and the TGI (DMS 273 small cell lung) was 65.4 µM. For the same compound, the TGI (HCT-15 colon) was over 100 µM, the TGI (HL-60(TB) leukemia) was over 100 µM and the TGI (KM20L2 colon) was over 100 µM. It also gave a TGI (SF-539 CNS) of 42.3 µM and a TGI (SW-620 colon) of over 100 µM.
In the case of `N#CCC(=O)N/N=C1\C(=O)N(c2ccc(Cl)cc2)C(=O)C(=O)C1c1nc2ccccc2o1` (stereo not given), the TGI (A549 NSCLC) is reported as over 100 µM, the TGI (ACHN renal) is reported as over 100 µM and the TGI (DMS 273 small cell lung) is reported as over 100 µM. For the same compound, the TGI (HCT-15 colon) was over 100 µM, the TGI (HL-60(TB) leukemia) was over 100 µM and the TGI (KM20L2 colon) was over 100 µM. For the same compound, the TGI (SF-539 CNS) was over 100 µM and the TGI (SW-620 colon) was over 100 µM.
